Results reported in PubChem BioAssay (NCI).
“And” between values parts separate entries of the source, which are not always exact repeats. Equal values may be shown once.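 Cultured in 96-well plates, cells were exposed to test compound for 48 hours across five concentrations. Here, GI50 denotes the concentration required for 50% inhibition of growth. TGI denotes the concentration required for complete inhibition of growth.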

Columns and labels:
Assay in all cases: growth of human tumour cells (NCI), 48 h
HCC-2998 colon = test system: HCC-2998 colon
RXF 393 renal = test system: RXF 393 renal
NCI-H23 lung = test system: NCI-H23 lung
KM12 colon = test system: KM12 colon
SN12C renal = test system: SN12C renal
UACC-257 melanoma = test system: UACC-257 melanoma
M14 melanoma = test system: M14 melanoma
OVCAR-5 ovarian = test system: OVCAR-5 ovarian
SK-MEL-28 melanoma = test system: SK-MEL-28 melanoma
A498 renal = test system: A498 renal

## O=C(Cn1ccnc1[N+](=O)[O-])NCCO
HCC-2998 colon
  TGI: > 100 µM
RXF 393 renal
  TGI: > 100 µM
NCI-H23 lung
  TGI: > 100 µM
KM12 colon
  TGI: > 100 µM
SN12C renal
  TGI: > 100 µM
UACC-257 melanoma
  TGI: > 100 µM
M14 melanoma
  TGI: > 100 µM
OVCAR-5 ovarian
  TGI: > 100 µM
SK-MEL-28 melanoma
  TGI: > 100 µM
A498 renal
  TGI: > 100 µM

## Cc1ccc(CCC(=O)Nc2ncc(Cc3cc(Cl)ccc3Cl)s2)o1
HCC-2998 colon
  GI50: 0.312 µM
  TGI: 6.41 µM
RXF 393 renal
  GI50: 0.256 µM
  TGI: 1.75 µM
NCI-H23 lung
  GI50: 0.471 µM
  TGI: > 37.7 µM
KM12 colon
  GI50: 0.0966 µM
  TGI: > 36.3 µM
SN12C renal
  GI50: 0.489 µM
  TGI: 11.1 µM
UACC-257 melanoma
  GI50: 13.4 µM
  TGI: > 100 µM
M14 melanoma
  GI50: 0.091 µM
  TGI: 3.97 µM
OVCAR-5 ovarian
  GI50: 0.455 µM
  TGI: 14.1 µM
SK-MEL-28 melanoma
  GI50: 1.54 µM
  TGI: > 100 µM
A498 renal
  GI50: 0.171 µM
  TGI: 0.801 µM

## COc1ccc(CN2CCc3c(Cl)nc(N)nc3C2=O)c(OC)c1
HCC-2998 colon
  GI50: 17.3 µM
  TGI: 31.6 µM
RXF 393 renal
  GI50: 22.7 µM
  TGI: 52.9 µM
NCI-H23 lung
  GI50: 15.8 µM
  TGI: 32.2 µM
KM12 colon
  GI50: 14.4 µM
  TGI: 28.4 µM
SN12C renal
  GI50: 14.9 µM
  TGI: 31.5 µM
UACC-257 melanoma
  GI50: 19.3 µM
  TGI: 49.1 µM
M14 melanoma
  GI50: 13.8 µM
  TGI: 28.1 µM
OVCAR-5 ovarian
  GI50: 21.1 µM
  TGI: 46.7 µM
SK-MEL-28 melanoma
  GI50: 15.7 µM
  TGI: 29.4 µM
A498 renal
  GI50: 23.7 µM
  TGI: 81.5 µM

## O=C(Nc1ccc(Cl)cc1)NS(=O)(=O)c1ccc2c(c1)CCC2
HCC-2998 colon
  GI50: 17.3 µg/mL
  TGI: > 77.6 µM and 36.8 µg/mL
RXF 393 renal
  GI50: 2.52 µg/mL
  TGI: 79.3 µM and 22.8 µg/mL
NCI-H23 lung
  GI50: 15.6 µg/mL
  TGI: > 56 µM and 36.3 µg/mL
KM12 colon
  GI50: 19.1 µg/mL
  TGI: 98.9 µM and 40.2 µg/mL
SN12C renal
  GI50: 20.3 µg/mL
  TGI: > 100 µM and 43.1 µg/mL
UACC-257 melanoma
  GI50: 27.8 µg/mL
  TGI: > 100 µM and 80.6 µg/mL
M14 melanoma
  GI50: 20.2 µg/mL
  TGI: 97.5 µM and 45.1 µg/mL
OVCAR-5 ovarian
  GI50: 20 µg/mL
  TGI: > 91 µM and 39.3 µg/mL
SK-MEL-28 melanoma
  GI50: 20.1 µg/mL
  TGI: > 100 µM and 39.3 µg/mL
A498 renal
  GI50: 19.1 µg/mL
  TGI: > 100 µM and 38 µg/mL

## COC(=O)C1Cc2c([nH]c3ccccc23)[C@H](CC(C)C)N1 (stereo partly drawn)
HCC-2998 colon
  TGI: > 100 µM
RXF 393 renal
  TGI: > 100 µM
NCI-H23 lung
  TGI: > 100 µM
KM12 colon
  TGI: > 100 µM
SN12C renal
  TGI: > 100 µM
UACC-257 melanoma
  TGI: > 100 µM
M14 melanoma
  TGI: > 100 µM
OVCAR-5 ovarian
  TGI: > 100 µM
SK-MEL-28 melanoma
  TGI: > 100 µM
A498 renal
  TGI: > 100 µM

## COc1cc([C@@H]2c3cc4c(cc3[C@H](OC3OC5COC(c6ccccc6)OC5C(O)C3O)[C@H]3COC(=O)[C@H]23)OCO4)cc(OC)c1OC (stereo partly drawn)
HCC-2998 colon
  GI50: 0.367 µM
  TGI: 4.7 µM
RXF 393 renal
  GI50: 0.264 µM
  TGI: 0.879 µM
NCI-H23 lung
  GI50: 0.418 µM
  TGI: 14.5 µM
KM12 colon
  GI50: 0.326 µM
  TGI: 1.55 µM
SN12C renal
  GI50: 0.368 µM
  TGI: 20.6 µM
UACC-257 melanoma
  GI50: 1.07 µM
  TGI: 3.69 µM
M14 melanoma
  GI50: 0.351 µM
  TGI: 17.9 µM
OVCAR-5 ovarian
  GI50: 2.58 µM
  TGI: 22.5 µM
SK-MEL-28 melanoma
  GI50: 0.71 µM
  TGI: 3.06 µM
A498 renal
  GI50: 0.364 µM
  TGI: 3.4 µM

## O=C(CCCCCCc1nc2ccc(Br)cc2[nH]1)NO
HCC-2998 colon
  GI50: 0.777 µM
  TGI: 3.08 µM
RXF 393 renal
  GI50: 0.24 µM
  TGI: 0.813 µM
NCI-H23 lung
  GI50: 0.507 µM
  TGI: 4.89 µM
KM12 colon
  GI50: 0.377 µM
  TGI: 4.18 µM
SN12C renal
  GI50: 1.3 µM
  TGI: > 35.5 µM
UACC-257 melanoma
  GI50: 0.354 µM
  TGI: 7.17 µM
M14 melanoma
  GI50: 0.34 µM
  TGI: 7.51 µM
OVCAR-5 ovarian
  GI50: 0.568 µM
  TGI: 22.3 µM
SK-MEL-28 melanoma
  GI50: 0.703 µM
  TGI: 2.75 µM
A498 renal
  GI50: 0.723 µM
  TGI: 2.1 µM

## O=C1CCCC1C(=O)Nc1ccc2ccccc2c1 (stereo not drawn)
HCC-2998 colon
  TGI: > 100 µM
RXF 393 renal
  TGI: > 100 µM
NCI-H23 lung
  TGI: > 100 µM
KM12 colon
  TGI: > 100 µM
SN12C renal
  TGI: > 100 µM
UACC-257 melanoma
  TGI: > 100 µM
M14 melanoma
  TGI: > 100 µM
OVCAR-5 ovarian
  TGI: > 100 µM
SK-MEL-28 melanoma
  TGI: > 100 µM
A498 renal
  TGI: > 100 µM

## O=C(CC(O)(c1ccccc1)c1ccc(Cl)cc1)NC(=O)c1ccccc1O (stereo not drawn)
HCC-2998 colon
  TGI: 21.1 µM
RXF 393 renal
  TGI: 49 µM
NCI-H23 lung
  TGI: 26.9 µM
KM12 colon
  TGI: 21.9 µM
SN12C renal
  TGI: 32 µM
UACC-257 melanoma
  TGI: 32.6 µM
M14 melanoma
  TGI: 27.9 µM
OVCAR-5 ovarian
  TGI: 8.95 µM
SK-MEL-28 melanoma
  TGI: > 100 µM
A498 renal
  TGI: 8.62 µM

## Cc1cc(O)c2c(c1)C[C@@H](O)C1=C2C(=O)c2c(O)ccc(OC3CC(O)C(OC4CC(OC5CCC(OC6CC(O)C(OC7CC(OC8CCC(O)C(C)O8)C(O)C(C)O7)C(C)O6)C(C)O5)C(O)C(C)O4)C(C)O3)c2C1=O (stereo partly drawn)
HCC-2998 colon
  GI50: 1.76 µM and 1.45 µM
RXF 393 renal
  GI50: 0.302 µM and 0.29 µM
  TGI: 0.108 µM and 0.535 µM and 0.751 µM
NCI-H23 lung
  GI50: 0.343 µM and 0.8 µM
KM12 colon
  GI50: 1.78 µM and 1.11 µM
SN12C renal
  GI50: 0.307 µM and 1.94 µM
UACC-257 melanoma
  GI50: 1.38 µM and 0.844 µM
M14 melanoma
  GI50: 0.822 µM and 1.28 µM
OVCAR-5 ovarian
  GI50: 1.88 µM and 0.666 µM
SK-MEL-28 melanoma
  GI50: 0.267 µM and 1.44 µM
A498 renal
  GI50: 2.72 µM and 2.47 µM

## C=C1C(=O)O[C@@H]2[C@@H]3O[C@@](C)(CC/C=C(\C)CCC[C@@H]2C)[C@H](O)C[C@@H]13
HCC-2998 colon
  TGI: 18 µM
RXF 393 renal
  GI50: 1.79 µM
  TGI: 3.58 µM
NCI-H23 lung
  GI50: 3.71 µM
  TGI: 16.5 µM
KM12 colon
  TGI: 24.6 µM
SN12C renal
  GI50: 2.61 µM
  TGI: 10.1 µM
UACC-257 melanoma
  GI50: 1.29 µM
  TGI: 4.27 µM
M14 melanoma
  GI50: 1.72 µM
  TGI: 3.48 µM
OVCAR-5 ovarian
  TGI: 26.7 µM
SK-MEL-28 melanoma
  GI50: 3.13 µM
  TGI: 12.2 µM
A498 renal
  GI50: 8.87 µM
  TGI: 21.3 µM
